Results reported in US20120309753A1, “METHOD OF DISSOLVING ANTIFUNGAL AGENT, AND COMPOSITIONS WITH A HIGH CONCENTRATION OF ANTIFUNGAL AGENT, SUITABLE FOR APPLICATION TO THE NAIL” (GALDERMA RESEARCH & DEVELOPMENT, priority 2009, published 2012).
Structures can show the parent of a compound that is named as a salt. Where two headings read alike, the source gives them in different places.

Tests used:
[1] = Visual solubility of terbinafine HCl in solvent systems (Method 1); assay type: physicochemical
Procedure: Terbinafine HCl is weighed out accurately into a 20 ml flask and then the solvents are added. The flask is subsequently placed, with magnetic stirring, in a chamber thermostated at 20° C., for 16 h. If some of the active ingredient has not dissolved, a further addition of solvent is made. The flask is then placed again, with magnetic stirring, in the thermostated chamber, for 16 h, until dissolution is complete. If this is not so, the preceding step is repeated.

[2] = Procedure: Different solubility tests on terbinafine HCl were carried out in different solvent systems. The solubility was both estimated visually by Method 1 below, then quantified by HPLC assay by Method 2 below.
Weigh out precisely approximately 15 mg of terbinafine HCl into a 50 ml volumetric flask. Dissolve in the diluent and make up to the volume with the same solvent. Prepare the solution in duplicate (A1, A2)
Dilute solution A to 1/5 in the diluent. Dilution
The standard range is produced by varying the injection volume of solution A, at an equivalent concentration of 4 μg/ml to 120 μg/ml.
2 tests per sample are prepared, of concentrations from 40 μg/ml to 100 μg/ml.
• Column: Sun Fire C18 4.6×100 mm 3.5 μm, fitted with a precolumn. • Column temperature: 30° C. • Flow rate: 1.5 ml/min • Injected volume: 30 μl for the sample solutions • Analysis time: 10 min • Detection at: 285 nm • Gradient:
• Inject a blank sample (diluent) and check that no peak of the blank sample interferes with the terbinafine HCl. • Inject solutions STD1 and STD2 and check that the % deviation between the 2 controls is <2%.

[3] = tested on: Trichophyton rubrum; conditions: oral route, 250 mg/day for 6 months; cited from earlier work

| visual solubility ([1]; 15% water, 70% ethanol, 15% propylene glycol) [% w/w] | visual solubility ([1]; 15% water, 70% propylene glycol, 15% ethanol) [% w/w] | visual solubility ([1]; 30% water, 35% propylene glycol, 35% ethanol) [% w/w] | visual solubility ([1]; 33% water, 33% propylene glycol, 33% ethanol) [% w/w] | visual solubility ([1]; 50/50 ethanol/propylene glycol mixture, 20° C.) [% w/w] | visual solubility ([1]; binary water/ethanol mixture (50/50), 20° C.) [% w/w] | visual solubility ([1]; binary water/propylene glycol mixture (50/50), 20° C.) [% w/w] | visual solubility ([1]; in ethanol, 20° C.) [% w/w] | visual solubility ([1]; in propylene glycol, 20° C.) [% w/w] | visual solubility ([1]; in water, 20° C.) [% w/w] | solubility ([1]; ternary water/propylene glycol/ethanol mixture containing at least 30% of water (Graph 1)) | solubility by HPLC assay ([2]; 50/50 ethanol/propylene glycol mixture) [% w/w] | expected solubility by additive effect ([2]; ethanol/propylene glycol binary mixture, expected from the single solvents) [%] | solubility by HPLC assay ([2]; in ethanol) [% w/w] | solubility by HPLC assay ([2]; in propylene glycol) [% w/w] | solubility ([1]; ternary mixture with 40% of water, amount of ethanol greater than or equal to that of propylene glycol) | SMILES | efficacy in the treatment of onychomycoses due to Trichophyton rubrum [3] |
| --- | --- | --- | --- | --- | --- | --- | --- | --- | --- | --- | --- | --- | --- | --- | --- | --- | --- |
| 25.2 | 25.0 | 18.5 | 15.5 | 23.3 | 16.7 | 2.2 | 19.7 | 8.9 | 0.6 | greater than 10% | 20.4 | ~14 | 18.09 | 10.3 |  | CN(C/C=C/C#CC(C)(C)C)Cc1cccc2ccccc12 [terbinafine HCl, terbinafine hydrochloride] |  |
|  |  |  |  |  |  |  |  |  |  |  |  |  |  |  | greater than 10% | CN(C/C=C/C#CC(C)(C)C)Cc1cccc2ccccc12 [terbinafine] | effective |
